In US20090306133A1, “New Acetyl Coenzyme A Carboxylase (ACC) Inhibitors And Uses In Treatments Of Obesity And Diabetes Mellitus - 087” (ASTRAZENECA AB, priority 2007, published 2009):

Columns and labels:
[1] = biological target: Human recombinant Acetyl-CoA Carboxylase 2 (ACC2) (Homo sapiens, UniProt O00763); experiment: Assay X: ACC2 inhibition, inorganic phosphate (malachite green); format: biochemical; conditions: Assay X: 37° C., 1.5 h, 5 min pre-incubation
Procedure, shortened: (§1)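 Human recombinant enzyme pre-incubated 5 min with compound before substrate addition; reaction run 1.5 h, then inorganic phosphate detected by malachite green absorbance at 660 nm. Ten concentrations tested in triplicate; apparent IC50 from four-parameter curve fit.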

[2] = biological target: Human recombinant Acetyl-CoA Carboxylase 1 (ACC1) (Homo sapiens, UniProt Q13085); experiment: Assay X: ACC1 inhibition, inorganic phosphate (malachite green); format: biochemical; conditions: Assay X: 37° C., 1.5 h, 5 min pre-incubation
Procedure, shortened: as §1

Chain of Human recombinant Acetyl-CoA Carboxylase 2 (ACC2) (O00763 whole entry): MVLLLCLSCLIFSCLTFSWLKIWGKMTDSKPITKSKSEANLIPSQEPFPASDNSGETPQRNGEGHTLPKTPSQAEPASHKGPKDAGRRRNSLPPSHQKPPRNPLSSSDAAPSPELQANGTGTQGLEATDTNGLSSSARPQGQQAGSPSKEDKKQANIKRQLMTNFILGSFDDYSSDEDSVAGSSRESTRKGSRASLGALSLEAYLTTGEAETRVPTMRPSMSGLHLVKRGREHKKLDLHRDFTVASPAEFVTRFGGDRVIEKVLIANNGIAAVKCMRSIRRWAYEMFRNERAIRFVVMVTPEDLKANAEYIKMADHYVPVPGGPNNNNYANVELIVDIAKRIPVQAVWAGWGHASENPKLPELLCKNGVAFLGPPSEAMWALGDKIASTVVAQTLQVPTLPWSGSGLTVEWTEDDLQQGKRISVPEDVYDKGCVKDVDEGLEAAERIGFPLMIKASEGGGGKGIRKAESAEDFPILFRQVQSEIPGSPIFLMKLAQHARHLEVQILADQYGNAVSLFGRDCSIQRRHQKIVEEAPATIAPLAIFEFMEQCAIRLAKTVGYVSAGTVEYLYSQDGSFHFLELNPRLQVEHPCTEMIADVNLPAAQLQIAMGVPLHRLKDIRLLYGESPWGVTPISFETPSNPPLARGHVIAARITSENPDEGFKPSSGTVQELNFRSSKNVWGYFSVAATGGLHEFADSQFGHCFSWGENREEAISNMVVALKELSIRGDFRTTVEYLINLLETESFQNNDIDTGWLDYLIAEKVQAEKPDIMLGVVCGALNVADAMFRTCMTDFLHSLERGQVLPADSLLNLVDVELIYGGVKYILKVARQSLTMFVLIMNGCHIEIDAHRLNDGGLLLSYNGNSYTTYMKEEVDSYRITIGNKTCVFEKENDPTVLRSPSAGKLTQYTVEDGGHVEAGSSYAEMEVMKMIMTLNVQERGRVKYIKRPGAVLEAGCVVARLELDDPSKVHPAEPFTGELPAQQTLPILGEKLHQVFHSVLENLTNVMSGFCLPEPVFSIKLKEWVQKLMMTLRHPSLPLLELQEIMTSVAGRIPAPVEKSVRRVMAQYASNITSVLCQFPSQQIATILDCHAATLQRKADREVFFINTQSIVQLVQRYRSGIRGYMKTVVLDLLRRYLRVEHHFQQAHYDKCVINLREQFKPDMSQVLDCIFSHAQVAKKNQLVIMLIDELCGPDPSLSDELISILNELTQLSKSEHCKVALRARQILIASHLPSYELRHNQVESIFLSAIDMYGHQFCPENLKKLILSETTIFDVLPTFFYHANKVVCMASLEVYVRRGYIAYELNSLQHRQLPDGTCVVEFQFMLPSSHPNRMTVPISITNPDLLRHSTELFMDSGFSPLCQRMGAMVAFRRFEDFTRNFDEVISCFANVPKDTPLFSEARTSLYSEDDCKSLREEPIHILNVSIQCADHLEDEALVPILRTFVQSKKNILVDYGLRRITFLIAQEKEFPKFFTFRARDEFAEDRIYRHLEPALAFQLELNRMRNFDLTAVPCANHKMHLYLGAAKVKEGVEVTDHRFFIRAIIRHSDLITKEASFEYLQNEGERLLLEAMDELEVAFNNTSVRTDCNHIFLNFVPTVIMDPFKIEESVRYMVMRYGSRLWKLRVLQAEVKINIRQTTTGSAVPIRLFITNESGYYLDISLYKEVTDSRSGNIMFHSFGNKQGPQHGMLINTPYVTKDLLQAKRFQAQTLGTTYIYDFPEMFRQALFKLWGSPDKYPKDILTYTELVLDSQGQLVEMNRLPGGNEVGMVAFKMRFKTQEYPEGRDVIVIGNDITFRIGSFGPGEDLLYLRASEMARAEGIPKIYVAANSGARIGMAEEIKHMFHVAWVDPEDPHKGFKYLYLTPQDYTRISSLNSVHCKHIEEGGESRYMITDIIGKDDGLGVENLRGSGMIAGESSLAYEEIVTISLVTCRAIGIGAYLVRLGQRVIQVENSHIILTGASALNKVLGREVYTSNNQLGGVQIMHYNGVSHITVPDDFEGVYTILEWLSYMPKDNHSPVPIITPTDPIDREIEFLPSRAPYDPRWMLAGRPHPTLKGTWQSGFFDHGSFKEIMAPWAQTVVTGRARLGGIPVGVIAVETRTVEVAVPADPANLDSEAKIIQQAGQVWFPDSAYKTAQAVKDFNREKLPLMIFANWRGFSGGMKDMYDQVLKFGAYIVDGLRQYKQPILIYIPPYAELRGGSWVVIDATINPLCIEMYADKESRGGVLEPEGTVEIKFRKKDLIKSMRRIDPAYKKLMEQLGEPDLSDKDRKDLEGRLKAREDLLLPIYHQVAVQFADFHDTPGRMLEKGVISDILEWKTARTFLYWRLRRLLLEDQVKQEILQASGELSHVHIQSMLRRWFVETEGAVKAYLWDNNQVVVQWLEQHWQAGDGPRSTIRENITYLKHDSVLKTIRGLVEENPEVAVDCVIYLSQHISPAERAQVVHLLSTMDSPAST

Row | Compound | IC50 [1] [nM] | IC50 [2] [nM]
1 | CC(C)(C)OC(=O)NC[C@H]1CC[C@H](CNC(=O)c2cc(-c3ccc(N)nc3)nc(-c3cccc(CN)c3)c2)CC1 [Example 241, tert-Butyl [(trans-4-{[({6′-amino-6-[3-(aminomethyl)phenyl]-2,3′-bipyridin-4-yl}carbonyl)amino]methyl}cyclohexyl)methyl]carbamate] | 110 | 260
2 | CN(C)CCn1cc(-c2cc(C(=O)NC[C@H]3CC[C@H](CNC(=O)OC(C)(C)C)CC3)c3ccccc3n2)cn1 [Example 242, tert-Butyl {[trans-4-({[(2-{1-[2-(dimethylamino)ethyl]-1H-pyrazol-4-yl}quinolin-4-yl)carbonyl]amino}methyl)cyclohexyl]methyl}carbamate] | 240 | 1330
3 | CC(C)(C)OC(=O)NC[C@H]1CC[C@H](CNC(=O)c2cc(-c3cnn(CCO)c3)nc3ccccc23)CC1 [Example 243, tert-Butyl [(trans-4-{[({2-[1-(2-hydroxyethyl)-1H-pyrazol-4-yl]quinolin-4-yl}carbonyl)amino]methyl}cyclohexyl)methyl]carbamate] | 610 | 1930
4 | CC(C)(C)OC(=O)NC[C@H]1CC[C@H](CNC(=O)c2cc(N3CCC(CCNCCF)CC3)nc3ccccc23)CC1 [Example 244] | 150 | 1250
5 | CN(CCF)CCC1CCN(c2cc(C(=O)NC[C@H]3CC[C@H](CNC(=O)OC(C)(C)C)CC3)c3ccccc3n2)CC1 [Example 245, tert-Butyl ({trans-4-[({[2-(4-(2-((2-fluoroethyl)(methyl)amino)ethyl}piperidin-1-yl)quinolin-4-yl]carbonyl}amino)methyl]cyclohexyl}methyl)carbamate] | 180 | 1400
